In one data set the test system is Mouse neuro 2a cells. As to the kind of experiment: Neurite outgrowth of mouse neuroblastoma neuro 2a cells (Table 7). In kind it is cell-based. Conditions: mean ± S.D. How it is done: The biological activities in vitro of the compounds of formula (I) on cells of the nervous system were tested. The cells tested were mouse neuroblastoma cell line neuro-2a (Dainippon Pharmaceutical Co., Ltd.) which have been established as the cells of the nervous system. The above nerve cells were grown in an incubator at 37° C. in the presence of 5% carbon dioxide gas exponentially, and the cultured for a certain period of time together with the compounds of formula (I).
The effects of the compounds of this invention on neuroblastoma cells were examined by the following method.
Mouse neuro 2a cells in the logarithmic growth period in the Dulbecco's modified Eagle's medium [DMEM, containing 100 units/ml of penicillin G sodium and 100 micrograms/ml of streptomycin sulfate] containing 10% of FCS were seeded in a 48-well plate so that the number of cells was 1,000 cells/well, and cultured for one day in 0.25 ml of the culture fluid in each well in an incubator containing 5% of carbon dioxide gas in air at 37° C. The medium was replaced by a medium containing each antibiotics and FCS and the cells were further cultured for 24 hours. Then, a 4% aqueous glutaraldehyde solution in the same amount as a medium (0.25 ml) was added, and the culture was left to stand at room temperature for 2 hours to fix the cells. After washing with water, a 0.05% aqueous solution of methylene blue was added to stain the cells. Under a microscope, the number of cells containing outgrown neurites (cells having at least one neurite with a length of at least two times as large as the long diameter of the cell) was counted visually, and the proportion of these cells in the entire cells was calculated. The well was observed over 5 or more visual fields (at least 2% of the entire surface area of the well) continuous to the left and right from a mark put at the center of the well, and more than 200 cells was counted. One drug compound was used in 6 different concentrations at most, and three runs were conducted for each concentration.

The subject of another data set is mouse. As to the kind of experiment: Acute toxicity in mouse (Table 10). In kind it is in vivo. On the procedure: The acute toxicity of the compounds of the invention was examined by the following method.
Male ddy-strain 5-week old mice, 4-6 per group, were used as experimental animals. Each of the compounds was dissolved or suspended in saline and administered perorally (p.o.) or intraperitoneally (i.p.), and the toxicity of the compound was assessed 24 hours after the administration.

The test system of data set [1] is Mouse neuroblastoma cells NS-20Y. As to the kind of experiment: Neurite appearance in mouse neuroblastoma NS-20Y cells (Table 8).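 Note: cells grown in polyornithine-coated dishes, with timing counted from the start of culture.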 In kind it is cell-based.
The mark [2] stands for this setting: i.p., 24 hours after administration.

For the molecule `CN(C(=O)c1ccccc1)c1ccnc(N2CCc3ccccc32)n1` [Compound 104], the results for the “Ratio of the number of cells having neurites with a length of at least two times as large as the diameter of cells to the total number of cells” value (from here on “Ratio”) in the data set on Mouse neuro 2a cells (0.03 mM) and with Mouse neuro 2a cells (0.1 mM) were 3.4 ± 1.0% and 5.2 ± 2.9%, respectively. Moreover, the “Estimated LD50” value with mouse (setting [2]) is recorded as over 1000 mg/kg. The “The number of cells in which neurites appeared/Total number of cells” value in data set [1] (24 hour, 0.2 mM) is reported as 3/50; in data set [1] (24 hour, 0.5 mM) it was 4/50; in data set [1] (48 hour, 0.2 mM) it was 4/50; in data set [1] (48 hour, 0.5 mM), 3/50.
As for `CN(C(=O)c1ccc(C(F)(F)F)cc1)c1ccnc(N2CCC(c3ccccc3)CC2)n1.Cc1ccc(S(=O)(=O)O)cc1` [Compound 112, 4-(N-methyl-4-trifluoromethylbenzoylamino)-2-(4-phenylpiperidino) pyrimidine p-toluenesulfonate], the “Ratio” value is 5.9 ± 0.9% with Mouse neuro 2a cells (0.03 mM), 43.3 ± 1.8% in the data set on Mouse neuro 2a cells (0.1 mM), 21.6 ± 3.3% in the data set with Mouse neuro 2a cells (0.3 mM) and 10.0 ± 3.8% in the data set on Mouse neuro 2a cells (1 mM). For the same molecule, the “Estimated LD50” value in the data set with mouse (setting [2]) is over 1000 mg/kg. Further, the “The number of cells in which neurites appeared/Total number of cells” value is 3/50 in data set [1] (24 hour, 0.1 mM) and 2/50 in data set [1] (48 hour, 0.1 mM).
Regarding `COC(=O)c1ccc(C(=O)N(C)c2ccnc(N3CCC(c4ccccc4)CC3)n2)cc1` [Compound 120], the results for the “Ratio” value in the data set on Mouse neuro 2a cells (0.03 mM) and with Mouse neuro 2a cells (0.1 mM) were 12.6 ± 1.6% and 8.6 ± 5.5%, respectively. Moreover, the “Estimated LD50” value in the data set on mouse (in vivo, ip) is recorded as over 1000 mg/kg. Besides, the “The number of cells in which neurites appeared/Total number of cells” value in data set [1] (24 hour, 0.2 mM) is 3/50; in data set [1] (48 hour, 0.2 mM), 3/50.
On to `CN(C(=O)c1ccc(C#N)cc1)c1ccnc(N2CCC(c3ccccc3)CC2)n1` [Compound 128], for which the “Ratio” value came out at 4.3 ± 1.6% with Mouse neuro 2a cells (0.1 mM) and 4.8 ± 1.2% in the data set on Mouse neuro 2a cells (0.3 mM). In addition, the “Estimated LD50” value in the data set on mouse (setting [2]) is over 1000 mg/kg. Further, the “The number of cells in which neurites appeared/Total number of cells” value is reported as 3/50 in data set [1] (24 hour, 0.5 mM) and 4/50 in data set [1] (48 hour, 0.1 mM).
For the molecule `CN(C(=O)c1ccc(S(=O)(=O)F)cc1)c1ccnc(N2CCC(c3ccccc3)CC2)n1` [Compound 136], the “Ratio” value in the data set on Mouse neuro 2a cells (0.03 mM) was found to be 5.2 ± 1.8%; in the data set on Mouse neuro 2a cells (0.1 mM), 5.4 ± 1.7%; in the data set with Mouse neuro 2a cells (0.3 mM) it was 10.3 ± 0.2%; with Mouse neuro 2a cells (1 mM) it was 11.8 ± 1.4%. The “Estimated LD50” value in the data set on mouse (setting [2]) was over 1000 mg/kg. Moreover, the “The number of cells in which neurites appeared/Total number of cells” value in data set [1] (24 hour, 0.5 mM) is 4/50; in data set [1] (48 hour, 0.2 mM), 3/50.
Turning to `CN(C(=O)c1ccc2ccccc2c1)c1ccnc(N2CCC(c3ccccc3)CC2)n1` [Compound 144], the “Ratio” value in the data set on Mouse neuro 2a cells (0.01 mM) was found to be 5.1 ± 0.9%; in the data set on Mouse neuro 2a cells (0.1 mM), 4.2 ± 0.6%. The “The number of cells in which neurites appeared/Total number of cells” value in data set [1] (24 hour, 0.5 mM) was 3/50; in data set [1] (48 hour, 0.1 mM), 4/50.
Turning to `CN(C(=O)c1ccc(C=O)cc1)c1ccnc(N2CCC(c3ccccc3)CC2)n1` [Compound 152], the figures for the “Ratio” value in the data set on Mouse neuro 2a cells (0.01 mM) and with Mouse neuro 2a cells (0.03 mM) were 5.2 ± 0.4% and 16.5 ± 1.8%, respectively. Also, in the data set with mouse (in vivo, ip), the “Estimated LD50” value is given as over 1000 mg/kg. The “The number of cells in which neurites appeared/Total number of cells” value in data set [1] (24 hour, 0.1 mM) is on record as 2/50; in data set [1] (48 hour, 0.1 mM), 3/50.
Take `CN(C(=O)c1ccccc1)c1ccnc(N2Cc3ccccc3C2)n1` [Compound 184]: the figures for the “Ratio” value in the data set with Mouse neuro 2a cells (0.01 mM) and in the data set with Mouse neuro 2a cells (0.1 mM) were 0.5 ± 0.8% and 0.9 ± 0.8%, respectively. The “The number of cells in which neurites appeared/Total number of cells” value in data set [1] (24 hour, 0.1 mM) is recorded as 2/50; in data set [1] (48 hour, 0.1 mM), 3/50.
As for `O=CN1CCN(c2ccnc(N3CCCCC3)n2)CC1` [Compound 223], the “Estimated LD50” value in the data set with mouse (setting [2]) is given as over 1000 mg/kg.
As to `O=C(O)/C=C\C(=O)O.O=CN1CCN(c2ccnc(N3CCCCC3)n2)CC1` [Compound 224, 4-(N-formylpiperazino)-2-piperidino pyrimidine maleate], the “Ratio” value worked out at 8.9 ± 1.5% in the data set with Mouse neuro 2a cells (0.1 mM) and 21.4 ± 3.3% with Mouse neuro 2a cells (0.3 mM). Besides, the “The number of cells in which neurites appeared/Total number of cells” value in data set [1] (24 hour, 0.1 mM) is 2/50; in data set [1] (48 hour, 0.1 mM), 3/50.
Consider `O=C(c1ccccc1)N1CCN(c2ccnc(N3CCCCC3)n2)CC1` [Compound 232], for which, in the data set on mouse (in vivo, ip), the “Estimated LD50” value is recorded as over 1000 mg/kg. The “The number of cells in which neurites appeared/Total number of cells” value is given as 3/50 in data set [1] (24 hour, 0.2 mM) and 4/50 in data set [1] (48 hour, 0.1 mM).
Take `CC(=O)N1CCN(c2ccnc(N3CCCCC3)n2)CC1` [Compound 240]: in the data set on mouse (in vivo, ip), the “Estimated LD50” value is reported as over 1000 mg/kg. For the same molecule, the “The number of cells in which neurites appeared/Total number of cells” value in data set [1] (24 hour, 0.1 mM) was 3/50; in data set [1] (24 hour, 0.5 mM), 5/50; in data set [1] (48 hour, 0.2 mM) it was 5/50; in data set [1] (48 hour, 0.5 mM), 6/50.
As to `O=C(c1ccccc1)N1CCN(c2ccnc(N3CCC(c4ccccc4)CC3)n2)CC1` [Compound 248], the “Estimated LD50” value with mouse (setting [2]) is over 1000 mg/kg. Moreover, the “The number of cells in which neurites appeared/Total number of cells” value in data set [1] (24 hour, 0.2 mM) was 3/50; in data set [1] (48 hour, 0.1 mM), 3/50.
For the molecule `CC(=O)N1CCN(c2ccnc(N3CCC(c4ccccc4)CC3)n2)CC1` [Compound 256], the “Estimated LD50” value in the data set on mouse (setting [2]) was over 1000 mg/kg. The “The number of cells in which neurites appeared/Total number of cells” value in data set [1] (24 hour, 0.1 mM) is on record as 3/50; in data set [1] (24 hour, 0.2 mM), 3/50; in data set [1] (48 hour, 0.1 mM), 4/50; in data set [1] (48 hour, 0.2 mM) it was 3/50.
Consider `CN(C(=O)c1ccc(O)cc1)c1ccnc(N2CCC(c3ccccc3)CC2)n1` [Compound 264], for which the “Estimated LD50” value in the data set on mouse (setting [2]) was over 1000 mg/kg. Besides, the “The number of cells in which neurites appeared/Total number of cells” value in data set [1] (24 hour, 0.5 mM) is reported as 3/50; in data set [1] (48 hour, 0.2 mM), 3/50.
On to `O=C1CCCN1c1ccnc(N2CCCCC2)n1` [Compound 272], for which the “Ratio” value in the data set with Mouse neuro 2a cells (0.01 mM) is given as 5.4 ± 0.4%; in the data set with Mouse neuro 2a cells (0.1 mM) it was 10.5 ± 2.5%; in the data set with Mouse neuro 2a cells (0.3 mM), 25.1 ± 2.7%; in the data set on Mouse neuro 2a cells (1 mM), 20.4 ± 4.9%. The “Estimated LD50” value in the data set with mouse (in vivo, ip) is 250 to 500 mg/kg.
As for `O=C1CCCN1c1ccnc(N2CCC(c3ccccc3)CC2)n1` [Compound 280], the “Ratio” value is 7.1 ± 1.7% in the data set on Mouse neuro 2a cells (0.01 mM), 6.9 ± 1.4% in the data set on Mouse neuro 2a cells (0.1 mM), 7.5 ± 1.1% in the data set with Mouse neuro 2a cells (0.3 mM) and 8.1 ± 6.3% in the data set with Mouse neuro 2a cells (1 mM). Further, the “Estimated LD50” value in the data set on mouse (setting [2]) is over 1000 mg/kg.
In the case of `O=C1CCCCN1c1ccnc(N2CCCCC2)n1` [Compound 288], the “Estimated LD50” value in the data set with mouse (setting [2]) is on record as over 1000 mg/kg.
On to `O=C1CCCCN1c1ccnc(N2CCC(c3ccccc3)CC2)n1` [Compound 296], for which the “Estimated LD50” value with mouse (setting [2]) is on record as over 1000 mg/kg.

Values taken from patent US5358945A, “Pyrimidine compound and pharmaceutically acceptable salts thereof” (Mitsui Petrochemical Industries, Ltd., priority 1990, dated 1994).
